Consider one compound from patent publication US12534477B2, “Compound having KHK inhibitory effect” (HANGZHOU ZHONGMEIHUADONG PHARMACEUTICAL CO., LTD., priority 2019, dated 2026).

A short description of series [1]: Liver-blood ratio, tissue distribution in rats. Type of series: in vivo, SD rats. Conditions: SD, rat, 1 mg/kg, PO 1 mpk.
In series [2] the test system is fructose metabolism in mice. Put plainly: Acute fructose feeding experiment in mice. Conditions: compound 10 mpk, oral fructose 1 g/kg. It is filed as in vivo.
The mark [3] stands for this setting: brain, read-out: Brain tissue concentration.
Where [4] appears, read: brain/plasma, read-out: Brain-blood ratio.
Where [5] appears, read: liver, read-out: Liver tissue concentration.
Where [6] appears, read: liver/plasma, read-out: Liver-blood ratio.
The mark [7] stands for this setting: plasma, read-out: Plasma concentration.

Where two headings read alike, the source gives them in different places.

Regarding `C[C@H]1CCN1c1nc(N2C[C@@H]3[C@@H](CC(=O)O)[C@@H]3C2)c2ccsc2n1` [WX004], in series [1] (setting [3]), the concentration at 1.5 h stood at 0.105 µM, the concentration at 2 h came to 0.148 µM and the concentration at 6 h turned out to be 0.071 µM. Also, in series [1] (setting [4]), the Kp at 1.5 h came out at 0.022, the Kp at 2 h was found to be 0.019 and the Kp at 6 h is 0.023. Besides, in series [1] (setting [5]), the concentration at 1.5 h amounted to 4.42 µM, the concentration at 2 h was determined as 6.37 µM and the concentration at 6 h stood at 3.9 µM. Moreover, in series [1] (setting [6]), the Kp at 1.5 h turned out to be 0.943, the Kp at 2 h was found to be 0.821 and the Kp at 6 h turned out to be 1.22. Moreover, in series [1] (setting [7]), the concentration at 1.5 h came to 4.67 µM, the concentration at 2 h was found to be 7.75 µM and the concentration at 6 h was found to be 3.67 µM. In addition, in series [2], the “AUC of integral fructose concentration for dosed group” value amounted to 2194 nM·h and the “AUC of integral fructose concentration of dosed group/AUC of Integral fructose concentration of control group” value was found to be 5.0.
